Toxic doses and inconclusive results are not listed. Cut-off read from the data, not from the text of the source: active = T/C of 150% or more; inactive = T/C below 125%. Square brackets hold non-standard residues; d marks the D form. Peptide text beside a SMILES is read from it. Sar = CNCC(=O)O
Tested on: L1210 leukemia ip in BDF1 mice, survival T/C
Test: NCI In Vivo Anticancer Drug Screen. Data for tumor model L1210 Leukemia (intraperitoneal) in B6D2F1 (BDF1) mice
Conditions: endpoint: mean survival time, higher = longer survival
Outline: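 Tumor cells were implanted, animals were treated, and survival was followed. The result divides the treated measurement by the vehicle-control measurement.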

[1] = dose: 100.0 mg/kg/injection, schedule: Q01DX001 (ip), vehicle: other
[2] = dose: 200.0 mg/kg/injection, schedule: Q01DX001 (ip), vehicle: other
[3] = dose: 50.0 mg/kg/injection, schedule: Q01DX001 (ip), vehicle: saline
[4] = dose: 100.0 mg/kg/injection, schedule: Q01DX001 (ip), vehicle: saline
[5] = dose: 100.0 mg/kg/injection, schedule: Q01DX009 (ip), vehicle: saline
[6] = dose: 100.0 mg/kg/injection, schedule: Q04DX003 (ip), vehicle: saline
[7] = dose: 200.0 mg/kg/injection, schedule: Q01DX009 (ip), vehicle: saline
[8] = dose: 200.0 mg/kg/injection, schedule: Q04DX003 (ip), vehicle: saline
[9] = dose: 200.0 mg/kg/injection, schedule: Q01DX001 (ip), vehicle: saline
[10] = dose: 100.0 mg/kg/injection, schedule: Q04DX002 (ip), vehicle: saline
[11] = dose: 100.0 mg/kg/injection, schedule: Q01DX009 (ip), vehicle: Klucel (hydroxypropylcellulose) (HPC)
[12] = dose: 100.0 mg/kg/injection, schedule: Q04DX003 (ip), vehicle: Klucel (hydroxypropylcellulose) (HPC)
[13] = dose: 200.0 mg/kg/injection, schedule: Q04DX003 (ip), vehicle: Klucel (hydroxypropylcellulose) (HPC)
[14] = dose: 400.0 mg/kg/injection, schedule: Q04DX003 (ip), vehicle: Klucel (hydroxypropylcellulose) (HPC)

Measured: T/C

COc1ccc(OC)c([N+](=O)[O-])c1C=O
inactive: [1] 92 % of control | [2] 90 % of control | dose: 400.0 mg/kg/injection, schedule: Q01DX001 (ip), vehicle: other 90 % of control

c1cc2c3c(c1)[I+]c1cccc(c1-3)[I+]2
inactive: [3] 112 % of control | [4] 116 % of control

CCCOP(OCCC)OCCC
inactive: dose: 50.0 mg/kg/injection, schedule: Q01DX009 (ip), vehicle: saline 93 % of control | [5] 101 % of control | [6] 103 % of control | [7] 98 % of control | [8] 95 % of control

CN(C)C1(C(=O)O)c2ccccc2-c2ccccc21
inactive: [3] 100 % of control | [4] 100 % of control | [9] 97 % of control

CCc1ccc2ccc3c4ccccc4ccc3[n+]2c1
inactive: dose: 10.0 mg/kg/injection, schedule: Q01DX001 (ip), vehicle: saline 93 % of control | dose: 20.0 mg/kg/injection, schedule: Q01DX001 (ip), vehicle: saline 90 % of control | dose: 40.0 mg/kg/injection, schedule: Q01DX001 (ip), vehicle: saline 94 % of control

OC[CH2][Hg][I]
inactive: dose: 1.56 mg/kg/injection, schedule: Q01DX009 (ip), vehicle: Klucel (hydroxypropylcellulose) (HPC) 88 % of control | dose: 6.25 mg/kg/injection, schedule: Q01DX009 (ip), vehicle: Klucel (hydroxypropylcellulose) (HPC) 93 % of control

CCCC(C(=O)OCC)C1=NC(C)(C)CC(C)O1 (stereo not drawn)
inactive: dose: 100.0 mg/kg/injection, schedule: Q01DX009 (ip), vehicle: alcohol 102 % of control | dose: 200.0 mg/kg/injection, schedule: Q01DX009 (ip), vehicle: alcohol 105 % of control | dose: 400.0 mg/kg/injection, schedule: Q01DX009 (ip), vehicle: alcohol 105 % of control

CC[N+](C)(CC)CCN1C(=O)c2ccccc2S1(=O)=O
inactive: dose: 44.0 mg/kg/injection, schedule: Q01DX Z (ip), vehicle: saline 108 % of control | dose: 66.0 mg/kg/injection, schedule: Q01DX Z (ip), vehicle: saline 98 % of control

CCc1c(CNc2ccc(C(=O)NC(CC(=O)O)CC(=O)O)cc2)ccc2nc(N)nc(N)c12
inactive: dose: 0.25 mg/kg/injection, schedule: Q01DX009 (ip), vehicle: saline 114 % of control | dose: 1.0 mg/kg/injection, schedule: Q01DX009 (ip), vehicle: saline 103 % of control | dose: 1.0 mg/kg/injection, schedule: Q04DX003 (ip), vehicle: saline 118 % of control

FC(F)(F)C(F)(F)c1nc2nc(Cl)c(Cl)nc2[nH]1
inactive: dose: 50.0 mg/kg/injection, schedule: Q01DX009 (ip), vehicle: other 106 % of control | dose: 100.0 mg/kg/injection, schedule: Q01DX009 (ip), vehicle: other 92 % of control | dose: 100.0 mg/kg/injection, schedule: Q04DX003 (ip), vehicle: other 120 % of control | dose: 132.0 mg/kg/injection, schedule: Q04DX003 (ip), vehicle: other 94 % of control | dose: 200.0 mg/kg/injection, schedule: Q04DX003 (ip), vehicle: other 114 % of control

COC(=O)/C(=C\c1ccccc1)CN1CCCCC1
inactive: dose: 25.0 mg/kg/injection, schedule: Q01DX001 (ip), vehicle: saline with Tween-80 101 % of control | dose: 50.0 mg/kg/injection, schedule: Q01DX001 (ip), vehicle: saline with Tween-80 93 % of control | dose: 100.0 mg/kg/injection, schedule: Q01DX001 (ip), vehicle: saline with Tween-80 104 % of control

O=C(COc1cc(Cl)c(Cl)cc1Cl)Nc1cccc(C(F)(F)F)c1
inactive: [10] 100 % of control | dose: 200.0 mg/kg/injection, schedule: Q04DX002 (ip), vehicle: saline 92 % of control | dose: 400.0 mg/kg/injection, schedule: Q04DX002 (ip), vehicle: saline 111 % of control

CCOC(=O)c1nc2c(C)nc(N)nc2[nH]c1=O
inactive: dose: 100.0 mg/kg/injection, schedule: Q01DX001 (ip), vehicle: Klucel (hydroxypropylcellulose) (HPC) 107 % of control | dose: 200.0 mg/kg/injection, schedule: Q01DX001 (ip), vehicle: Klucel (hydroxypropylcellulose) (HPC) 111 % of control | dose: 400.0 mg/kg/injection, schedule: Q01DX001 (ip), vehicle: Klucel (hydroxypropylcellulose) (HPC) 96 % of control

O=NN(CCCl)C(=O)Nc1ncc([N+](=O)[O-])s1
inactive: dose: 8.0 mg/kg/injection, schedule: Q01DX001 (ip), vehicle: other 105 % of control | dose: 16.0 mg/kg/injection, schedule: Q01DX001 (ip), vehicle: other 105 % of control | dose: 31.0 mg/kg/injection, schedule: Q01DX001 (ip), vehicle: other 110 % of control | dose: 62.0 mg/kg/injection, schedule: Q01DX001 (ip), vehicle: other 109 % of control | dose: 125.0 mg/kg/injection, schedule: Q01DX001 (ip), vehicle: other 116 % of control

OCC1N=C(c2ccccc2)OC1c1ccccc1 (stereo not drawn)
inactive: dose: 50.0 mg/kg/injection, schedule: Q01DX009 (ip), vehicle: saline with Tween-80 94 % of control | dose: 100.0 mg/kg/injection, schedule: Q01DX009 (ip), vehicle: saline with Tween-80 102 % of control | dose: 200.0 mg/kg/injection, schedule: Q01DX009 (ip), vehicle: saline with Tween-80 96 % of control

CN(CC(=O)O)C(=O)CN (H-Gly-[Sar]-OH)
inactive: dose: 25.0 mg/kg/injection, schedule: Q04DX002 (ip), vehicle: saline 113 % of control | dose: 50.0 mg/kg/injection, schedule: Q04DX002 (ip), vehicle: saline 97 % of control | [10] 103 % of control

O=C(/C(=C/c1ccc(Cl)cc1)c1ccccc1)c1ccc(O)cc1
inactive: [9] 92 % of control | dose: 400.0 mg/kg/injection, schedule: Q01DX001 (ip), vehicle: saline 86 % of control

CCCCNC(=O)c1ccccc1-c1ccccc1C(=O)NCCCC
inactive: [1] 105 % of control | [2] 97 % of control

COc1ccc(OC)c(NC(=O)Oc2ccccc2F)c1
inactive: dose: 50.0 mg/kg/injection, schedule: Q01DX009 (ip), vehicle: Klucel (hydroxypropylcellulose) (HPC) 97 % of control | [11] 93 % of control | [12] 90 % of control | [13] 93 % of control | [14] 92 % of control

ClCc1ccc(CCl)c2ccccc12
inactive: [12] 104 % of control | [13] 105 % of control | [14] 100 % of control

CC(=O)N1CCCCC1
inactive: dose: 50.0 mg/kg/injection, schedule: Q01DX001 (ip), vehicle: carboxymethylcellulose (CMC) 97 % of control | dose: 100.0 mg/kg/injection, schedule: Q01DX001 (ip), vehicle: carboxymethylcellulose (CMC) 94 % of control | [5] 100 % of control | dose: 200.0 mg/kg/injection, schedule: Q01DX001 (ip), vehicle: carboxymethylcellulose (CMC) 100 % of control | [7] 98 % of control

CN1CCC=Cc2ccccc21
inactive: [5] 97 % of control | [6] 92 % of control | [8] 95 % of control | dose: 400.0 mg/kg/injection, schedule: Q04DX003 (ip), vehicle: saline 90 % of control

CSc1ssc(=Nc2ccc(C)cc2)c1-c1ccccc1
inactive: [11] 95 % of control | [12] 88 % of control | dose: 200.0 mg/kg/injection, schedule: Q01DX009 (ip), vehicle: Klucel (hydroxypropylcellulose) (HPC) 93 % of control | [13] 91 % of control | dose: 400.0 mg/kg/injection, schedule: Q01DX009 (ip), vehicle: Klucel (hydroxypropylcellulose) (HPC) 93 % of control | [14] 89 % of control

CCCCN(CCCC)CC(=O)Nc1ccc(C(=O)OCC(C)C)cc1
inactive: dose: 20.0 mg/kg/injection, schedule: Q01DX Z (ip), vehicle: saline 97 % of control | dose: 30.0 mg/kg/injection, schedule: Q01DX Z (ip), vehicle: saline 98 % of control | dose: 45.0 mg/kg/injection, schedule: Q01DX Z (ip), vehicle: saline 106 % of control | dose: 68.0 mg/kg/injection, schedule: Q01DX Z (ip), vehicle: saline 97 % of control

COc1ccc(C(=O)OCC(Br)CBr)cc1 (stereo not drawn)
inactive: dose: 222.0 mg/kg/injection, schedule: Q01DX Z (ip), vehicle: methylcellulose (MC) 102 % of control | dose: 333.0 mg/kg/injection, schedule: Q01DX Z (ip), vehicle: methylcellulose (MC) 108 % of control | dose: 500.0 mg/kg/injection, schedule: Q01DX Z (ip), vehicle: methylcellulose (MC) 103 % of control

C(C#CC1CCCCC1)#CC1CCCCC1
inactive: [5] 94 % of control | [7] 91 % of control | dose: 400.0 mg/kg/injection, schedule: Q01DX009 (ip), vehicle: saline 94 % of control

From PubChem BioAssay AID248 (DTP/NCI, 2004)
